Min. conc. response and EC50 data for 24 molecules are collected here from patent US7273866B2, “2-aryl thiazole derivatives as KCNQ modulators” (Bristol-Myers Squibb Company, priority 2002, dated 2007).

The test relates to KCNQ channels. Kind of test: Thallium flux assay for KCNQ channel openers. Format: cell-based. The following applies: HEK-293 cells stably transfected with a KCNQ family member; for Min. conc. response: minimal active concentration: lowest concentration giving signal amplitude >= four standard deviations of negative controls; for EC50: thallium flux, 10 point concentration series. As for the experimental part:
Thallium Flux Assay for KCNQ channel Openers. The thallium assay is a modification of that published by Weaver and is referenced in its entirety (Weaver, C. D. WO 02/31508, 2002).
Approximately 20,000 cells/well of an HEK-293 cell line stably transfected with one of the members of the KCNQ family were plated into clear-bottom, black-walled, poly-D-lysine coated, 384 well assay plates in 20 μl/well of low chloride plating medium. Low chloride plating medium was composed of the following: sodium gluconate, 109 mM; potassium gluconate, 5.4 mM; hemi-calcium gluconate, 3.6 mM; magnesium sulfate, 0.8 mM; sodium bicarbonate, 26.2 mM; sodium phosphate monobasic, 1.2 mM; glutamine, 2 mM; glucose, 5 mM; 4-(2-hydroxyethyl)-1-piperazineethanesulfonic acid (HEPES) (pH 7.3) 10 mM, MEM vitamin solution (10× concentration of vitamins, Gibco/LifeTechnologies 11120-052) and MEM amino acid solution (1× concentration of amino acids, Gibco/LifeTechnologies 11130-051).
Following overnight incubation in a 5% CO2 incubator at 37° C., the cells in the plates were loaded with 20 μl/well of a dye loading solution containing the commercially available thallium-sensitive fluorescent dye BTC-AM, the acetomethoxy ester of BTC (see U.S. Pat. No. 5,501,980) (2 μM) and pluronic acid F-127 (Molecular Probes P 6867) (0.02% w/v) in chloride free assay buffer. Chloride free assay buffer was composed of the following: sodium gluconate, 140 mM; potassium gluconate, 2.5 mM; hemi-calcium gluconate, 6 mM; hemi-magnesium gluconate, 2 mM; glucose, 5 mM; HEPES (pH 7.3), 10 mM.
Following incubation in the dye loading solution for from 45-90 min at room temperature, the dye loading solution was removed by aspiration and replaced with 40 μl/well of chloride free assay buffer.
Prior to addition to cell plates, test compound and standard compounds were dissolved in DMSO to 3 mM concentration. Compounds were then diluted from the 3 mM stock to 100-fold over the final assay concentration in DMSO. Finally, compounds in DMSO were diluted from 100-fold over the final assay concentration to 5-fold over the final assay concentration in chloride free assay buffer.
Ten μl/well of compounds at 5-fold over the final assay concentration were then added to the cell plates. This represents a 1:5 dilution, yielding the final test concentration. The wells used for test compounds were A1-P20. Wells A21-P22 contained a standard opener and a maximally efficacious concentration (positive control). Wells A23-P24 contained chloride free assay buffer containing 1% DMSO (negative control).
Following addition of test compounds, the plates were loaded onto the Molecular Devices FLIPR. The 488 nm line of the argon laser was used to excite the BTC and the emission filter was a 540(+/−30) nm. Images were collected at 1 Hz. Ten seconds of baseline were collected and then the FLIPR was used to add 13 μl/well of a stimulus buffer composed of 7.5 mM Tl2SO4 in chloride free assay buffer. Images were collected for an additional 60 seconds.
For data analysis, the amplitude of the average of the negative controls was subtracted from all wells. The amplitudes of the test compounds were then compared to the value of four standard deviations of the negative control wells. The lowest concentration of a test compound sufficient to generate a signal amplitude greater than or equal to four standard deviations from the amplitude of the negative controls was defined as the minimal active concentration.
For generating EC50 values, compounds were serially diluted in 1:3 volume increments to produce a 10 point concentration series. EC50 values were calculated by fitting the resulting amplitudes to a single-site logistic equation. EC50 was defined as the concentration of test compound required to yield 50% of the maximal response. Maximal response (Maximal opening) was the largest signal amplitude divided by the negative control amplitude generated by any concentration of a test compound. […]

Structures are written as SMILES. Where only a bound is given, the exact number is not on record here.

For `COc1ccccc1-c1nc(C(F)(F)F)c(C(=O)NC(C)c2cccc(NC(=N)N)c2)s1` (centres unmarked) [Example 40, 2-(2-methoxyphenyl)-4-(trifluoromethyl)-N-[1-[3-(guanidinyl)phenyl]ethyl]-5-thiazolecarboxamide], the Min. conc. response is 30 µM and the EC50 is 1000 to 20000 nM.
`COc1ccc(F)cc1-c1nc(C(F)(F)F)c(C(=O)NC(C)c2cccc(OC(F)(F)F)c2)s1` (centres unmarked) [Example 41, 2-(5-fluoro-2-methoxyphenyl)-4-(trifluoromethyl)-N-[1-[3-(trifluoromethoxy)phenyl]ethyl]-5-thiazolecarboxamide] came in with a Min. conc. response of 10 µM and an EC50 of 50 to 1000 nM.
`CCN(CC)Cc1cccc(C(C)NC(=O)c2sc(-c3cccc4ccccc34)nc2C(F)(F)F)c1` (centres unmarked) [Example 38, 2-(1-naphthyl)-4-(trifluoromethyl)-N-[1-[3-[(diethylamino)methyl]phenyl]ethyl]-5-thiazolecarboxamide] displayed a Min. conc. response of 30 µM and an EC50 of 1000 to 20000 nM.
`COc1ccccc1-c1nc(C(F)(F)F)c(C(=O)N[C@@H](C)c2cccc(N3CCOCC3)c2)s1` [Example 23, 2-(2-methoxyphenyl)-4-(trifluoromethyl)-N-[1-[3-(1-morpholinyl)phenyl]ethyl]-5-thiazolecarboxamide] displayed a Min. conc. response of 3 µM and an EC50 of 50 to 1000 nM.
`CCN(CC)Cc1ccccc1-c1nc(C(F)(F)F)c(C(=O)NC(C)c2cccc(-c3cccnc3)c2)s1` (centres unmarked) [Example 107] returned a Min. conc. response of 30 µM.
Take `CCN(Cc1ccncc1)Cc1ccccc1-c1nc(C(F)(F)F)c(C(=O)NC(C)c2cccc(OC(F)(F)F)c2)s1` (centres unmarked) [Example 113]: the Min. conc. response came to 0.3 µM.
The molecule `CCN(Cc1cccnc1-c1nc(C(F)(F)F)c(C(=O)NC(C)c2cccc(OC(F)(F)F)c2)s1)C(C)C` (centres unmarked) [Example 70, 2-[3-[ethyl(2-propyl)aminomethyl]pyridin-2-yl]-4-(trifluoromethyl)-N-[1-[3-(trifluoromethoxy)phenyl]ethyl]-5-thiazolecarboxamide] returned a Min. conc. response of 3 µM and an EC50 of 50 to 1000 nM.
Turning to `CC(NC(=O)c1sc(-c2ccccc2Cl)nc1C(F)(F)F)c1cccc(CN2CCOCC2)c1` (centres unmarked) [Example 53, 2-(2-chlorophenyl)-4-(trifluoromethyl)-N-[1-[3-(4-morpholinylmethyl)phenyl]ethyl]-5-thiazolecarboxamide], the Min. conc. response was found to be 3 µM and the EC50 was in the range of 1000 to 20000 nM.
On the same counts, the results for `C[C@H](NC(=O)c1sc(-c2ccccc2Cl)nc1C(F)(F)F)c1cccc(N2CCOCC2)c1` [Example 52, 2-(2-chlorophenyl)-4-(trifluoromethyl)-N-[1-[3-(4-morpholinyl)phenyl]ethyl]-5-thiazolecarboxamide] are 3 µM and 50 to 1000 nM.
For `CC(NC(=O)c1sc(-c2ccccc2Cl)nc1C(F)(F)F)c1cccc(C(F)(F)F)c1` (centres unmarked) [Example 51, 2-(2-chlorophenyl)-4-(trifluoromethyl)-N-[1-[3-(trifluoromethyl)phenyl]ethyl]-5-thiazolecarboxamide], the Min. conc. response is 0.3 µM and the EC50 lay in the range of 50 to 1000 nM.
`CC(NC(=O)c1sc(-c2ccccc2Cl)nc1C(F)(F)F)c1cccc(N(C)C)c1` (centres unmarked) [Example 50, 2-(2-chlorophenyl)-4-(trifluoromethyl)-N-[1-[3-(dimethylamino)phenyl]ethyl]-5-thiazolecarboxamide]: the Min. conc. response turned out to be 0.3 µM and the EC50 lay within 50 to 1000 nM.
`COc1ccccc1-c1nc(C(F)(F)F)c(C(=O)NC(C)c2cccc(C(F)(F)F)c2)s1` (centres unmarked) [Example 19, 2-(2-methoxyphenyl)-4-(trifluoromethyl)-N-[1-[3-(trifluoromethyl)phenyl]ethyl]-5-thiazolecarboxamide]: the Min. conc. response came out at 3 µM and the EC50 is under 50 nM.
`C[C@@H]1CN(c2cccc([C@H](C)NC(=O)c3sc(-c4ncccc4CN4CCOCC4)nc3C(F)(F)F)c2)C[C@H](C)O1` [Example 64, (S)-2-[3-(4-morpholinylmethyl)pyridin-2-yl]-4-(trifluoromethyl)-N-[1-[3-(2,6-dimethyl-4-morpholinyl)phenyl]ethyl]-5-thiazolecarboxamide] yielded a Min. conc. response of 10 µM and an EC50 of 50 to 1000 nM.
Take `CC(NC(=O)c1sc(-c2ccccc2Cl)nc1C(F)(F)F)c1cccc(OC(F)(F)F)c1` (centres unmarked) [Example 49, 2-(2-chlorophenyl)-4-(trifluoromethyl)-N-[1-[3-(trifluoromethoxy)phenyl]ethyl]-5-thiazolecarboxamide]: the Min. conc. response was 0.3 µM and the EC50 fell in the range of 50 to 1000 nM.
`CCN(CC)Cc1ccccc1-c1nc(C(F)(F)F)c(C(=O)NC(C)c2cccc(CN3CCOCC3)c2)s1` (centres unmarked) [Example 106] registered a Min. conc. response of 10 µM.
Take `COc1ccc(F)cc1-c1nc(C(F)(F)F)c(C(=O)NCc2cccc(OC(F)(F)F)c2)s1` [Example 46, 2-(5-fluoro-2-methoxyphenyl)-4-(trifluoromethyl)-N-[(3-trifluoromethoxyphenyl)methyl]-5-thiazolecarboxamide]: the Min. conc. response stood at 10 µM and the EC50 lay within 1000 to 20000 nM.
Take `CC(NC(=O)c1sc(-c2ccccc2CN(C)C)nc1C(F)(F)F)c1cccc(C(F)(F)F)c1` (centres unmarked) [Example 105]: the Min. conc. response is 30 µM.
Molecule `COc1ccccc1-c1nc(C(F)(F)F)c(C(=O)NC(C)c2cccc(N(C)Cc3ccco3)c2)s1` (centres unmarked) [Example 34, 2-(2-methoxyphenyl)-4-(trifluoromethyl)-N-[1-[3-[(2-furanylmethyl)methylamino]phenyl]ethyl]-5-thiazolecarboxamide] yielded a Min. conc. response of 0.3 µM and an EC50 of under 50 nM.
In turn, `COc1cccc(C(C)NC(=O)c2sc(-c3ccccc3N3CCOCC3)nc2C(F)(F)F)c1` (centres unmarked) [Example 55, 2-[2-(4-morpholinyl)phenyl]-4-(trifluoromethyl)-N-[1-[3-(methoxy)phenyl]ethyl]-5-thiazolecarboxamide] registered a Min. conc. response of 0.3 µM and an EC50 of 1000 to 20000 nM.
On the same counts, the results for `COc1ccccc1-c1nc(C(F)(F)F)c(C(=O)NC(C)c2cccc(OC(F)(F)F)c2)s1` (centres unmarked) [Example 18, 2-(2-methoxyphenyl)-4-(trifluoromethyl)-N-[1-[3-(trifluoromethoxy)phenyl]ethyl]-5-thiazolecarboxamide] are 0.3 µM and under 50 nM.
On the same counts, the results for `COc1ccccc1-c1nc(C(F)(F)F)c(C(=O)NC(C)c2cccc(N3CCCCC3)c2)s1` (centres unmarked) [Example 32, 2-(2-methoxyphenyl)-4-(trifluoromethyl)-N-[1-[3-(1-piperidinyl)phenyl]ethyl]-5-thiazolecarboxamide] are 0.3 µM and under 50 nM.
The molecule `CC(NC(=O)c1sc(-c2ccccc2F)nc1C(F)(F)F)c1cccc(N)c1` (centres unmarked) [Example 102] had a Min. conc. response of 0.3 µM.
In turn, `CC(NC(=O)c1sc(-c2cccc(N3CCOCC3)c2)nc1C(F)(F)F)c1cccc(OC(F)(F)F)c1` (centres unmarked) [Example 97] displayed a Min. conc. response of 10 µM.
In turn, `COc1ccccc1-c1nc(C(F)(F)F)c(C(=O)NCc2ccccn2)s1` [Example 84] returned a Min. conc. response of 30 µM.
